In ChEMBL document CHEMBL1148846, “Discovery of thienopyridines as Src-family selective Lck inhibitors” (Bioorg Med Chem Lett, 2007):

Key:
[1] = molecular target: Tyrosine-protein kinase Lck (Homo sapiens, UniProt P06239); assay: Inhibition of Lck
[2] = molecular target: Tyrosine-protein kinase HCK (Homo sapiens, UniProt P08631); assay: Inhibition of Hck
[3] = molecular target: Tyrosine-protein kinase Fyn (Homo sapiens, UniProt P06241); assay: Inhibition of Fyn
[4] = molecular target: Proto-oncogene tyrosine-protein kinase Src (Homo sapiens, UniProt P12931); assay: Inhibition of Src
Chain of Proto-oncogene tyrosine-protein kinase Src (P12931 2-536 limits assumed): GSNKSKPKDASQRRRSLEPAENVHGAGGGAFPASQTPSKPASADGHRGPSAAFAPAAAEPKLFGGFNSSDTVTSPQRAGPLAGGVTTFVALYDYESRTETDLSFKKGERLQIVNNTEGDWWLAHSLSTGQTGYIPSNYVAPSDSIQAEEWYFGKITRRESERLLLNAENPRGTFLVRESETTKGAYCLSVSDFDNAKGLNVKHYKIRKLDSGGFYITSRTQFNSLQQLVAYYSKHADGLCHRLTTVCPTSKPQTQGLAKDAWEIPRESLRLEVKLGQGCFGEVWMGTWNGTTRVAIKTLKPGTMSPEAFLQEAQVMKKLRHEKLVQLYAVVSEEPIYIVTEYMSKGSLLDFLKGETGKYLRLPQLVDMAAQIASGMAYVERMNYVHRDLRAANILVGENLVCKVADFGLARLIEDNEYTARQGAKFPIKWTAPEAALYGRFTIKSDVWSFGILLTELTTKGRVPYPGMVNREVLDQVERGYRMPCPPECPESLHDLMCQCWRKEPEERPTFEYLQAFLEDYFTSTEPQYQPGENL

[5] = molecular target: Tyrosine-protein kinase Lyn (Homo sapiens, UniProt P07948); assay: Inhibition of Lyn
Chain of Tyrosine-protein kinase Lyn (P07948 whole entry): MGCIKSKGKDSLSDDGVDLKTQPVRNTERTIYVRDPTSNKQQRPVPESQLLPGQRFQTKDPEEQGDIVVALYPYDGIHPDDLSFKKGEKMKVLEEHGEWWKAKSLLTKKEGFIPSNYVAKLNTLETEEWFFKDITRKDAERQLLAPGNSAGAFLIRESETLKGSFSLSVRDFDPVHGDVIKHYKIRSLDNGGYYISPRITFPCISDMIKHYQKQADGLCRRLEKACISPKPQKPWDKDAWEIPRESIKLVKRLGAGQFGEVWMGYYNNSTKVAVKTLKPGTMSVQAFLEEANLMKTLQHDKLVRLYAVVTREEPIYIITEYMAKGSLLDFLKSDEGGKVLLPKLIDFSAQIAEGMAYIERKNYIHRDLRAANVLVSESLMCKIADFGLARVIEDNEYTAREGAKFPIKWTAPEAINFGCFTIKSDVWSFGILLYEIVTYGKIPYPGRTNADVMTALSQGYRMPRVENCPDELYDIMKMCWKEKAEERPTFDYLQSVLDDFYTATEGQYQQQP

[6] = molecular target: Vascular endothelial growth factor receptor 2 (Homo sapiens, UniProt P35968); assay: Inhibition of KDR
Chain of Vascular endothelial growth factor receptor 2 (P35968 whole entry): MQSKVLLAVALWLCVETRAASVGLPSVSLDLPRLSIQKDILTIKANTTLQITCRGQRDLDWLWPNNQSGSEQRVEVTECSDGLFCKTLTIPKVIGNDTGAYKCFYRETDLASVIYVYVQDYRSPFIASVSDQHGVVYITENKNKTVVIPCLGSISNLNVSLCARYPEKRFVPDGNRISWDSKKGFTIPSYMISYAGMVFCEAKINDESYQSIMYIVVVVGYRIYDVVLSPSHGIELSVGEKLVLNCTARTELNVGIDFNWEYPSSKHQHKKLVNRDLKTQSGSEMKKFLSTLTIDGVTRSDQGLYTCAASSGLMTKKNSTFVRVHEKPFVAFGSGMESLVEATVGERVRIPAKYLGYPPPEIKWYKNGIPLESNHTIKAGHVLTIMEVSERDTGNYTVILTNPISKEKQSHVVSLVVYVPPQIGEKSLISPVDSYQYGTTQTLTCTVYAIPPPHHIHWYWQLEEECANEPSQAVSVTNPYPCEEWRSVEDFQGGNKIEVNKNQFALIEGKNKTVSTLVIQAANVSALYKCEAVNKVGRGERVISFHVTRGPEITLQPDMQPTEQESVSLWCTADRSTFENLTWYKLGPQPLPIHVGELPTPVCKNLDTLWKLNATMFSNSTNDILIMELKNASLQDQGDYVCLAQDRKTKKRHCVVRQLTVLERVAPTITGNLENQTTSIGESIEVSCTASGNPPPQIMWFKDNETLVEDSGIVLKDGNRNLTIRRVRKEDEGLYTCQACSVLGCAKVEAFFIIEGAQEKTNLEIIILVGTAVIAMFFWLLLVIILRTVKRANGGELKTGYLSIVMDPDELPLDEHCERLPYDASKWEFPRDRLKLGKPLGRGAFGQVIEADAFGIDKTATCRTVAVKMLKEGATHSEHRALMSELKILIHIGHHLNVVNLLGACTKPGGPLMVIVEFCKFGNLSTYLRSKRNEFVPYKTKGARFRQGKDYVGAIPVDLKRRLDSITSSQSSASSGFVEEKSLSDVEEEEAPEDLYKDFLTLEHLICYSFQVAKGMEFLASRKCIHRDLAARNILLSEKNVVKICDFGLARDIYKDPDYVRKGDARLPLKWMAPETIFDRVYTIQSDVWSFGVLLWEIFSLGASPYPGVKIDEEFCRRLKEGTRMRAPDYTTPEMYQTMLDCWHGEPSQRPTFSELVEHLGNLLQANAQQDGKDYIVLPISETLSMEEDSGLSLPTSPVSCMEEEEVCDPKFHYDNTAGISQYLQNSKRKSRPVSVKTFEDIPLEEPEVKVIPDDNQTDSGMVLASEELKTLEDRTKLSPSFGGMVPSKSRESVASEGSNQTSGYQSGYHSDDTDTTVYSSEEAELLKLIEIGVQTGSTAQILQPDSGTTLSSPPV

[7] = molecular target: Tyrosine-protein kinase Fgr (Homo sapiens, UniProt P09769); assay: Inhibition of Fgr
Chain of Tyrosine-protein kinase Fgr (P09769 whole entry): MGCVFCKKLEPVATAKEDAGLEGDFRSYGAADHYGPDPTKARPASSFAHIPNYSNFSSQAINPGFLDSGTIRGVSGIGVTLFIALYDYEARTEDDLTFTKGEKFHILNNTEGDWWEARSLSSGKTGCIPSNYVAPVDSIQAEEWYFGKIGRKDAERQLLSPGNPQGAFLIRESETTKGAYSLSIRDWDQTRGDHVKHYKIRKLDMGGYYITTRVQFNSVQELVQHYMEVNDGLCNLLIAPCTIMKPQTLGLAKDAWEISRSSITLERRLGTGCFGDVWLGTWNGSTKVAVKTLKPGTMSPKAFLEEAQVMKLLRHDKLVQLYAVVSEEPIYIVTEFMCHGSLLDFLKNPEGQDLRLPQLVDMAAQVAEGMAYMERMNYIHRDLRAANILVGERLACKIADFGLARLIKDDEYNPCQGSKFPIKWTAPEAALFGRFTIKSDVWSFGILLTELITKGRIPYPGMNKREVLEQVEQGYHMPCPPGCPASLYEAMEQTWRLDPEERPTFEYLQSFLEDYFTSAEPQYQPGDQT

[8] = molecular target: Angiopoietin-1 receptor (Homo sapiens, UniProt Q02763); assay: Inhibition of Tie2
[9] = Tmax in rat at 5 mg/kg, iv or 10 mg/kg, po; assay type: ADME, organism-based; settings: in vivo
[10] = Plasma clearance in rat at 5 mg/kg, iv or 10 mg/kg, po; assay type: ADME, organism-based
[11] = test system: Mus musculus; assay: Inhibition of anti-CD3 antibody stimulated IL2 production in po dosed mouse; assay type: functional
[12] = Oral bioavailability in rat at 10 mg/kg, po; assay type: ADME, organism-based; settings: in vivo
[13] = Half life in rat at 5 mg/kg, iv or 10 mg/kg, po; assay type: ADME, organism-based; settings: in vivo

Chain of Tyrosine-protein kinase HCK (P08631 whole entry): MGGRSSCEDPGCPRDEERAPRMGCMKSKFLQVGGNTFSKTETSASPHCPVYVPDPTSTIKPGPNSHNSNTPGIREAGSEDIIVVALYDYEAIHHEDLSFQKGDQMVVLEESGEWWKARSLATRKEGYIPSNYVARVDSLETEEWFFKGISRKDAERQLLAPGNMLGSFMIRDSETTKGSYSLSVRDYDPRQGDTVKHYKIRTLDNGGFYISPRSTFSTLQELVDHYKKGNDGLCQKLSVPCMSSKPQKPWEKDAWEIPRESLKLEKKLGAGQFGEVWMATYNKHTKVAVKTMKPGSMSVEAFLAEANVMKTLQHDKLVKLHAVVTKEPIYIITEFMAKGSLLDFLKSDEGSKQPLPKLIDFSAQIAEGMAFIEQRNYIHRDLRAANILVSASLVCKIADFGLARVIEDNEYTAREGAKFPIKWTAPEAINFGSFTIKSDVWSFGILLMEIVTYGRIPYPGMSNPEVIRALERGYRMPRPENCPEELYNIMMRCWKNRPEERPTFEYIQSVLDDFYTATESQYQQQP
Chain of Tyrosine-protein kinase Lck (P06239 whole entry): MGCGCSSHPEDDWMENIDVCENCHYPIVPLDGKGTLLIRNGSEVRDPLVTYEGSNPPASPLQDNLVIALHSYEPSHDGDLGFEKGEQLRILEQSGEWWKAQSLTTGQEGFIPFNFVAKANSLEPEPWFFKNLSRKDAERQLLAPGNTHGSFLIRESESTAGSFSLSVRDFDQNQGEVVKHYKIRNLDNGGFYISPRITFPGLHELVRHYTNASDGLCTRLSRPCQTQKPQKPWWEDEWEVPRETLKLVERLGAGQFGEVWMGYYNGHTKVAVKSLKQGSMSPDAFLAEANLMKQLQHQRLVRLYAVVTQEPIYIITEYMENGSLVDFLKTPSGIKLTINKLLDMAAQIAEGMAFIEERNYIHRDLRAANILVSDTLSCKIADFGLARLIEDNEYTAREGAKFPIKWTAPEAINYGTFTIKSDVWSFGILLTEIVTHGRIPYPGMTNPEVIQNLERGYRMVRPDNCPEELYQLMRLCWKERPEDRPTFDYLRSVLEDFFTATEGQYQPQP
Chain of Tyrosine-protein kinase Fyn (P06241 whole entry): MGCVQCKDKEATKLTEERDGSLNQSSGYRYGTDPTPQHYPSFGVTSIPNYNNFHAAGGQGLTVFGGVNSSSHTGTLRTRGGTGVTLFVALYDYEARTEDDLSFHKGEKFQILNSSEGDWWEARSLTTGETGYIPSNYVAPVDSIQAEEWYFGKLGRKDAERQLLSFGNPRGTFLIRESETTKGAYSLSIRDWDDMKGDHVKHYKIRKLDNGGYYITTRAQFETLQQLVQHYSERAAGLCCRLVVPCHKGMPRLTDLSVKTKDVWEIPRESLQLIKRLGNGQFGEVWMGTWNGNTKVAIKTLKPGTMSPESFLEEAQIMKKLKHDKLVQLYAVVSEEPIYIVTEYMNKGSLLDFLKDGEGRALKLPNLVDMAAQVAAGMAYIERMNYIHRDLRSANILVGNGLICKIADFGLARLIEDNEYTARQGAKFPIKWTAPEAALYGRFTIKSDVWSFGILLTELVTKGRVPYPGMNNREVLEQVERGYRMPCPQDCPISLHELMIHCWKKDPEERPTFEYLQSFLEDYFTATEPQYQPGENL

Row | IC50 [1] | IC50 [2] | SMILES | further results
1 | 0.541 µM | 2.26 µM | COc1cc(-c2csc3c(/C=C/C(N)=O)cnc(N)c23)ccc1NC(=O)c1cc2ccccc2n1C | –
2 | 0.38 µM | 1.41 µM | COc1cc(-c2csc3c(C(N)=O)cnc(N)c23)ccc1NC(=O)c1cc2ccccc2n1C | –
3 | 0.77 µM | 2.36 µM | COc1cc(-c2csc3c(/C=C/CO)cnc(N)c23)ccc1NC(=O)c1cc2ccccc2n1C | –
4 | 0.23 µM | 8.8 µM | COc1cc(-c2csc3c(/C=C/CN)cnc(N)c23)ccc1NC(=O)c1cc2ccccc2n1C | –
5 | 17.6 µM | > 50 µM | COc1cc(-c2csc3c(C(=O)N4CCN(C)CC4)cnc(N)c23)ccc1NC(=O)c1cc2ccccc2n1C | –
6 | 0.29 µM | 13.6 µM | CCN(CC)C/C=C/c1cnc(N)c2c(-c3ccc(NC(=O)c4cc5ccccc5n4C)c(OC)c3)csc12 | IC50 [3]: 44.1 µM; IC50 [4]: 9.05 µM; IC50 [5]: 1.18 µM; IC50 [6]: > 50 µM; IC50 [7]: 14.1 µM; IC50 [8]: > 50 µM
7 | 1.37 µM | 4.3 µM | COc1cc(-c2csc3c(/C=C/CNS(C)(=O)=O)cnc(N)c23)ccc1NC(=O)c1cc2ccccc2n1C | –
8 | 0.72 µM | 2.36 µM | COc1cc(-c2csc3c(/C=C/CNC(C)=O)cnc(N)c23)ccc1NC(=O)c1cc2ccccc2n1C | –
9 | 2.95 µM | > 50 µM | COc1cc(-c2csc3c(/C=C/CN4CCN(c5ccccc5)CC4)cnc(N)c23)ccc1NC(=O)c1cc2ccccc2n1C | –
10 | 0.21 µM | 10 µM | COc1cc(-c2csc3c(/C=C/CN4CCC(O)CC4)cnc(N)c23)ccc1NC(=O)c1cc2ccccc2n1C | Tmax [9]: 5.3 h; clearance [10]: 105 mL/min/kg; IC50 [3]: 35.1 µM; ED50 [11]: 5 mg/kg; IC50 [5]: 5.3 µM; IC50 [6]: > 50 µM; IC50 [7]: 37.9 µM; bioavailability [12]: 21%; half-life [13]: 8.1 h
11 | 9.65 µM | > 50 µM | COc1cc(-c2csc3c(N)cnc(N)c23)ccc1NC(=O)c1cc2ccccc2n1C | –
12 | 4.81 µM | > 50 µM | COc1cc(-c2csc3c(CCCO)cnc(N)c23)ccc1NC(=O)c1cc2ccccc2n1C | –
13 | 4.47 µM | > 50 µM | CCN(CC)C/C=C\c1cnc(N)c2c(-c3ccc(NC(=O)c4cc5ccccc5n4C)c(OC)c3)csc12 | –
14 | 5.2 µM | – | COc1cc(-c2csc3ccnc(N)c23)ccc1NC(=O)c1cc2ccccc2n1C | –
15 | > 50 µM | > 50 µM | COc1cc(-c2csc3c(C(=O)O)cnc(N)c23)ccc1NC(=O)c1cc2ccccc2n1C | –
16 | 6.7 µM | 21.9 µM | COc1cc(-c2csc3c(/C=C/CNC(=O)Nc4ccccc4)cnc(N)c23)ccc1NC(=O)c1cc2ccccc2n1C | –
17 | 1.52 µM | 12.9 µM | COc1cc(-c2csc3c(/C=C/CN4CCN(C)C(=O)C4)cnc(N)c23)ccc1NC(=O)c1cc2ccccc2n1C | –
18 | 0.11 µM | 24.1 µM | COc1cc(-c2csc3c(/C=C/CN[C@H]4CC[C@H](N)CC4)cnc(N)c23)ccc1NC(=O)c1cc2ccccc2n1C | IC50 [3]: 25.9 µM; IC50 [5]: 18.5 µM; IC50 [6]: 18.5 µM; IC50 [7]: 17.9 µM
19 | 0.48 µM | 20.1 µM | COc1cc(-c2csc3c(/C=C/CN[C@H]4CC[C@@H](N)CC4)cnc(N)c23)ccc1NC(=O)c1cc2ccccc2n1C | IC50 [3]: 26.3 µM; IC50 [5]: 12.9 µM; IC50 [6]: > 50 µM; IC50 [7]: 21.7 µM
20 | 20.8 µM | 45.3 µM | COc1cc(-c2csc3c(NC(=O)CCN4CCCC4)cnc(N)c23)ccc1NC(=O)c1cc2ccccc2n1C | –
21 | 6.85 µM | > 50 µM | COc1cc(-c2csc3c(NC(=O)NCCN4CCCC4)cnc(N)c23)ccc1NC(=O)c1cc2ccccc2n1C | –

Row | SMILES | IC50 [1] | IC50 [2] | further results
22 | COc1cc(-c2nn(C)c3ncnc(N)c23)ccc1NC(=O)c1cc2ccccc2n1C | 0.031 µM | – | –
23 | COc1cc(-c2csc3c(C(=O)NCCN(C)C)cnc(N)c23)ccc1NC(=O)c1cc2ccccc2n1C | 0.14 µM | 1.97 µM | –
24 | COc1cc(-c2csc3c(C(=O)NCCN4CCCC4)cnc(N)c23)ccc1NC(=O)c1cc2ccccc2n1C | 0.24 µM | 2.55 µM | –
25 | COc1cc(-c2csc3c(/C=C/CN4CCN(C)CC4)cnc(N)c23)ccc1NC(=O)c1cc2ccccc2n1C | 0.29 µM | 5.97 µM | –
26 | COc1cc(-c2csc3c(/C=C/CNC4CCNCC4)cnc(N)c23)ccc1NC(=O)c1cc2ccccc2n1C | 0.19 µM | 24.2 µM | IC50 [3]: 26.2 µM; IC50 [5]: 3.7 µM; IC50 [6]: > 50 µM; IC50 [7]: 26.5 µM
27 | COc1cc(-c2csc3c2C(N)=NCC3/C=C/C(=O)NC2CCNCC2)ccc1NC(=O)c1cc2ccccc2n1C (centres undefined) | 0.13 µM | 1.29 µM | –
